Assay results as given in patent US20230158048A1, “COMBINATIONS” (Recurium IP Holdings, LLC, priority 2020, published 2023).

What was measured:
MCF-7 cells = assay: Xenograft Tumor Model, MCF-7 (ER+ Breast cancer) mouse model; format: in vivo; details: MCF-7 xenograft mice, 50 mg/kg p.o.
Procedure: Mice were inoculated with MCF-7 cells subcutaneously on the 2nd right mammary fat pad with the single cell suspension of 95% viable tumor cells (1×10^7) in 100 μL DMEM Matrigel mixture (1:1 ratio) without serum for the tumor development. The treatment was started when the mean tumor size reached approximately 226 mm^3, with individual tumor size ranging from 185-245 mm^3. Animals were randomly distributed into treatment groups of 10 animals each and dosed with vehicle and indicated compounds at indicated dosage and frequency provided in FIG. 4 and Table 3. In FIG. 4, the bottom line with star is Compound 5A (200 mg/kg p.o. qd×24)+Palbociclib (50 mg/kg p.o. pd×24). Tumor volumes were evaluated twice per week to calculate tumor volume over time, and mice were weighed twice per week as a surrogate for signs of toxicity. Tumor growth inhibition (TGI) was calculated using the following equation TGI=(1−(Td−T0)/(Cd−C0))×100%. Td and Cd are the mean tumor volumes of the treated and control animals, and TO and C0 are the mean tumor volumes of the treated and control animals at the start of the experiment. The tumor regression was defined as individual tumor volume (TV) decrease (terminal TV compared to initial TV). The percent tumor regression was calculated using the formula: (1−(Td/T0))×100%.

ZR-75-1 cells = assay: CTG Assay (CellTiter-Glo Luminescent Cell Viability Assay), cell proliferation; format: cell-based; details: Homo sapiens, 160 nM, 72 h
Procedure: Cell proliferation was measured using the CellTiter-Glo® Luminescent Cell Viability Assay. The assay involved the addition of a single reagent (CellTiter-Glo® Reagent) directly to cells cultured in serum-supplemented medium. ZR-75-1 (ATCC® CRL-1500) cells were cultured according to ATCC recommendations and were seeded at 10,000 cells per well.
Compound 5A and Palbociclib were prepared as a DMSO stock solution (10 mM). Plates were incubated at 37° C., 5% CO2 for 72 h and then equilibrated at room temperature for approximately 30 min. An equal-volume amount of CellTiter-Glo® Reagent (100 μL) was added to each well. Plates were mixed for 2 min on an orbital shaker to induce cell lysis and then incubated at RT for 10 min to stabilize the luminescent signal. Luminescence (RLU (relative light unit)) was recorded using a SpectraMAX, M5e plate reader according to CellTiter-Glo protocol. Percent inhibition was calculated using the following formula: % inhibition=(RLU*100/(RLU of the cell background)). IC50 of each compound was calculated using GraphPad Prism by nonlinear regression analysis.

`CC(=O)c1c(C)c2cnc(Nc3ccc(N4CCNCC4)cn3)nc2n(C2CCCC2)c1=O` [Palbociclib] was tested, and the “TUMOR REGRESSION % (DAY 23)” value (MCF-7 cells) was 0% and the inhibition at 0.16 µM (ZR-75-1 cells) was 20%.
